The source of these data is PubChem BioAssay (NCI).

Some test systems named below: HCC-2998 colon; UACC-62 melanoma; SF-539 CNS; BT-549 breast; TK-10 renal; RXF 393 renal; SF-268 CNS; MCF7 breast; OVCAR-8 ovarian; HCT-15 colon.
Common to all, as to test: NCI tumour cell line growth inhibition, 48 h

Structures are written as SMILES.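 Method: 48-hour compound exposure of cells in 96-well plates, five concentrations, linear interpolation of endpoints. At the GI50, growth is halved. TGI: concentration producing complete growth inhibition.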

For `C[C@]12CC[C@@H]3c4ccc(O)cc4CC[C@H]3[C@@H]1CC[C@@H]2NS(=O)(=O)c1ccc(-c2ccccc2)cc1`, the GI50 is 4.39 µM in the test with HCC-2998 colon; 4.2 µM with UACC-62 melanoma; 3.91 µM in the test with SF-539 CNS; 2.99 µM in the test with BT-549 breast; 4.42 µM in the test on TK-10 renal; 2.58 µM in the test on RXF 393 renal. The GI50 in the test on SF-268 CNS is 3.93 µM; in the test on MCF7 breast, 3.56 µM; in the test on OVCAR-8 ovarian, 4.69 µM; in the test with HCT-15 colon, 3.04 µM. Further, the TGI with HCC-2998 colon is greater than 100 µM; in the test on UACC-62 melanoma, 20 µM; in the test with SF-539 CNS, 15.7 µM; in the test on BT-549 breast, 11.7 µM; in the test with TK-10 renal it was 55.9 µM; with RXF 393 renal, 8.08 µM. Also, the TGI with SF-268 CNS is greater than 100 µM; in the test on MCF7 breast, 11.2 µM; in the test on OVCAR-8 ovarian it was greater than 100 µM; with HCT-15 colon, 16.5 µM.

In the case of `COc1cc2c(cc1OC)[C@H]1C(=O)c3cc4c(cc3[C@H]1N(C)C2=O)OCO4`, the TGI in the test on HCC-2998 colon is greater than 100 µM; in the test on UACC-62 melanoma it was greater than 100 µM; with SF-539 CNS, greater than 77.8 µM; in the test on BT-549 breast, greater than 100 µM; with TK-10 renal, greater than 100 µM; with RXF 393 renal, greater than 100 µM. The TGI in the test on SF-268 CNS, in the test on MCF7 breast, in the test with OVCAR-8 ovarian and with HCT-15 colon was greater than 100 µM each time.

Take `COc1cc(C2c3cc4c(cc3[C@@H](Nc3cccc(O)c3)C3COC(=O)[C@H]23)OCO4)cc(OC)c1O` (stereo not given in full): the TGI was determined as 8.81 µM with HCC-2998 colon; 7.08 µM in the test with UACC-62 melanoma; 4.53 µM with SF-539 CNS; 6.7 µM with BT-549 breast; 10.7 µM in the test on TK-10 renal; 9.23 µM in the test on RXF 393 renal. The TGI with SF-268 CNS is 14.1 µM; with MCF7 breast it was 28.4 µM; with OVCAR-8 ovarian, 11.4 µM; with HCT-15 colon, 46.4 µM. For the same compound, the GI50 was 0.603 µM with UACC-62 melanoma; 0.482 µM with SF-539 CNS; 0.418 µM in the test with RXF 393 renal; 0.942 µM in the test with SF-268 CNS; 0.769 µM in the test on OVCAR-8 ovarian.

As for `O=c1[nH]c(-c2ccccn2)nc2sc3c(c12)CCCCCC3`, the GI50 in the test with HCC-2998 colon was 26.2 µM; in the test on UACC-62 melanoma it was 5.51 µM; in the test on SF-539 CNS, 7.84 µM; in the test on BT-549 breast it was 5.62 µM; in the test on TK-10 renal, greater than 100 µM; in the test on RXF 393 renal, 7.42 µM. The GI50 in the test on SF-268 CNS is 8.66 µM; with MCF7 breast, 2.47 µM; with OVCAR-8 ovarian, 4.33 µM; in the test on HCT-15 colon it was 2.35 µM. Further, the TGI in the test with HCC-2998 colon, in the test on UACC-62 melanoma, in the test with SF-539 CNS, in the test with BT-549 breast, with TK-10 renal and with RXF 393 renal was greater than 100 µM throughout. In addition, the TGI in the test on SF-268 CNS, with MCF7 breast, with OVCAR-8 ovarian and in the test with HCT-15 colon was greater than 100 µM throughout.

Take `CC(=O)Nc1ccc(-n2cnc3cc(-c4ccc(OCCN5CCCCC5)cc4)ccc32)cc1`: the GI50 with HCC-2998 colon is 5.98 µM; with UACC-62 melanoma, 6.79 µM; in the test on SF-539 CNS, 1.64 µM; in the test on BT-549 breast it was 4.88 µM; in the test on TK-10 renal it was 9.11 µM; in the test with RXF 393 renal, 3.04 µM. The GI50 in the test on SF-268 CNS was 5.28 µM; with MCF7 breast it was 4.16 µM; with OVCAR-8 ovarian, 6.07 µM; with HCT-15 colon, 1.54 µM. The TGI with HCC-2998 colon stood at 14.6 µM; in the test on UACC-62 melanoma it was 13 µM; in the test on SF-539 CNS, 6.47 µM; in the test with BT-549 breast, 9.77 µM; with TK-10 renal, 15.9 µM; in the test on RXF 393 renal, 8.04 µM. Further, the TGI in the test on SF-268 CNS was determined as 11.5 µM; in the test with MCF7 breast, 13.6 µM; with OVCAR-8 ovarian it was 14.8 µM; in the test with HCT-15 colon, 6.38 µM.

As for `O=C(Nc1ccccc1)Nc1ccccc1CNc1nc(Nc2ccc(OCCN3CCCC3)cc2)ncc1Cl`, the GI50 in the test with HCC-2998 colon is 5.23 µM; in the test with UACC-62 melanoma, 3.83 µM; in the test on SF-539 CNS, 1.72 µM; in the test with BT-549 breast, 5.05 µM; with TK-10 renal, 4.36 µM; in the test with RXF 393 renal, 1.44 µM. The GI50 was 6.2 µM in the test on SF-268 CNS, 1.69 µM with MCF7 breast, 7.62 µM in the test on OVCAR-8 ovarian and 2 µM with HCT-15 colon. The TGI in the test with HCC-2998 colon is 11.3 µM; in the test on UACC-62 melanoma it was 10.9 µM; in the test with SF-539 CNS, 6.23 µM; in the test on BT-549 breast, 11.4 µM; with TK-10 renal it was 15 µM; in the test with RXF 393 renal, 5.84 µM. For the same compound, the TGI in the test on SF-268 CNS is 16.6 µM; with MCF7 breast it was 7.82 µM; in the test on OVCAR-8 ovarian, greater than 50 µM; with HCT-15 colon, 8.31 µM.

Take `Cc1csc(Nc2nc(-c3cccc(Cl)c3)nc(C(Cl)(Cl)Cl)n2)n1`: the GI50 with HCC-2998 colon is 1.22 µM; in the test with UACC-62 melanoma, 6.73 µM; in the test with SF-539 CNS it was 2.04 µM; with BT-549 breast it was greater than 33.3 µM; in the test on TK-10 renal, 2.51 µM; with RXF 393 renal, 1.12 µM. Moreover, the GI50 in the test on SF-268 CNS was 6.48 µM; in the test on MCF7 breast, 1.46 µM; in the test with OVCAR-8 ovarian, 7.77 µM; in the test on HCT-15 colon it was 4.46 µM. Also, the TGI with HCC-2998 colon is 4.71 µM; with UACC-62 melanoma, greater than 33.3 µM; in the test with SF-539 CNS, 11.7 µM; in the test with BT-549 breast it was greater than 33.3 µM; with TK-10 renal, 14.4 µM; in the test on RXF 393 renal it was 6.44 µM. In addition, the TGI with SF-268 CNS, with MCF7 breast, in the test on OVCAR-8 ovarian and with HCT-15 colon was greater than 33.3 µM each time.

Regarding `CC1SC2(CCCCC2)N(NC(=O)c2[nH]c3ccc(F)cc3c2-c2ccccc2)C1=O` (stereo not given), the GI50 was greater than 100 µM in the test on HCC-2998 colon; 21.2 µM in the test with UACC-62 melanoma; greater than 100 µM in the test on SF-539 CNS; greater than 100 µM with BT-549 breast; 35.3 µM with TK-10 renal; 28.3 µM in the test with RXF 393 renal. Moreover, the GI50 with SF-268 CNS is 78.7 µM; with MCF7 breast it was greater than 100 µM; in the test with OVCAR-8 ovarian, 23.1 µM; in the test on HCT-15 colon it was greater than 100 µM. Moreover, the TGI in the test with HCC-2998 colon, in the test with UACC-62 melanoma, in the test on SF-539 CNS, with BT-549 breast, in the test on TK-10 renal and in the test with RXF 393 renal was greater than 100 µM each time. Besides, the TGI is greater than 100 µM in the test with SF-268 CNS, greater than 100 µM in the test on MCF7 breast, 63.5 µM in the test on OVCAR-8 ovarian and greater than 100 µM in the test on HCT-15 colon.
